Legend:
HSPDE4A1-EGFP = target: T1, HSPDE4A1-EGFP (Homo sapiens, UniProt P27815); assay: Competitive assay: reversal of Rolipram-induced spot dispersal, HSPDE4A1-EGFP CHO cells; type: cell-based; conditions: predicted
T1 construct: the ca. 1.95 kb coding region of HSPDE4A1 (GenBank Acc.no. U97584) is amplified; expressed in transfected cells

HSPDE4A4-EGFP [1] = target: T2, HSPDE4A4-EGFP (Homo sapiens, UniProt P27815); assay: Spot formation in CHO cells transfected with HSPDE4A4-EGFP; type: cell-based
T2 construct: expressed in transfected cells
Method: Chinese hamster ovary cells (CHO), are transfected with the plasmids described in Example 1 above using the transfection agent FuGENE™ 6 (Boehringer Mannheim Corp, USA) according to the method recommended by the suppliers. Stable transfectants are selected using 1 mg/ml G418 sulphate (Calbiochem) in the growth medium (HAM's F12 nutrient mix with Glutamax-1, 10% foetal bovine serum (FBS), 100 μg penicillin-streptomycin mixture ml^−1 (GibcoBRL, supplied by Life Technologies, Denmark). Cell are cultured at 37° C. in 100% humidity and conditions of normal atmospheric gases supplemented with 5% CO2.
For fluorescence microscopy, cells are allowed to adhere to Lab-Tek chambered coverglasses (Nalge Nunc International, Naperville USA) for at least 24 hours and are then cultured to about 80% confluence. Cells can also be grown in plastic 96-well plates (Polyfiltronics Packard 96-View Plate or Costar Black Plate, clear bottom; both types tissue culture treated) for imaging purposes. Prior to experiments, the cells are cultured over night without G418 sulphate in HAM F-12 medium with glutamax, 100 μg penicillin-streptomycin mixture ml^−1 and 10% FBS. This medium has low autofluorescence enabling fluorescence microscopy of cells straight from the incubator. For certain tests requiring medium of defined composition, particularly with regard to the presence of specific cell growth factors, the HAM's culture medium is replaced prior to imaging with a buffered saline solution (KRW buffer) containing (in mM) 3.6 KCl, 140 NaCl, 2 NaHCO3, 0.5 NaH2PO4, 0.5 MgSO4, 1.5 CaCl2, 10 Hepes, 5 glucose, pH7.4.
Changes in cellular distribution of a transfected probe can be imaged and quantified in an automated fashion. For this purpose cells are cultured to near 80% to 90% confluence in coverglass chambers or plastic 96-well plates, given the relevant treatment and allowed to respond. At the end of the response period, cells are fixed in 4% formaldehyde buffer (Lillies fixative buffer, pH7.0: Bie and Berntsen A/S, Denmark) for 30 minutes to 2 hours, then washed in phosphate buffered saline (PBS, Life Technologies, Denmark). Nuclear DNA is stained with 1 μM Hoechst 33258 (Molecular Probes, Eugene, Oreg., USA) in PBS for 10 minutes at 25° C., then washed twice in PBS. Automated images are collected on a Nikon Diaphot 300 (Nikon, Japan) using a Nikon Plan Fluor 20X/0.5NA objective lens. The basic microscope is fitted with a motorised specimen stage and motorised focus control (Prior Scientific, Fulbourn, Cambridge UK), excitation filter wheel (Sutter Instruments, Novato Calif. USA) and Photometrics PXL series camera with a KAF1400 CCD chip (Photometrics, Tucson, Ariz. USA), each of these items being under the control of an Macintosh 7200/90 computer (Apple Computer, Cupertino, Calif. USA). Automation of stage positioning, focus, excitation filter selection, and image acquisition is performed using macros written in-house, running under IPLab Spectrum for Macintosh (Scanalytics, Fairfax, Va. USA). Fluorescence illumination comes from a 100 W HBO lamp. Images are collected in pairs, the first using a 340/10 nm excitation filter, the second with a 475RDF40 excitation filter (Chroma, Brattleboro, Vt.). Both images are collected via the same dichroic and emission filters, which are optimised for EGFP applications (XF100 filter set, Omega Optical, Brattleboro, Vt.). While the choice of filters for imaging the nuclear stain (Hoechst 33258) is not well matched to that dye's spectral properties, resulting in lower image intensity, it greatly improves the throughput of the procedure by allowing both images to be collected using the same dichroic and emission filter. This eliminates any image registration problems and focus shifts which would result from using two different filter sets, which would require more steps in the acquisition procedure and more extensive image processing to overcome.

HSPDE4A4-EGFP [2] = target: T2, HSPDE4A4-EGFP; assay: Dispersal of preformed Rolipram-induced spots, HSPDE4A4-EGFP CHO cells; type: cell-based; conditions: yes/no
Method: For the microscopic assessment of spot dispersal, stably transfected (non-clonal) cells transfected with the HSPDE4A4-EGFP probe are allowed to adhere to chambered coverglasses in HAM's F12 medium containing 10% FBS. […] Chambered coverglasses are then transferred to a Zeiss 135 inverted microscope for time lapse imaging as described in Example 2, above. At a given point after starting an experiment, a mixture of IBMX and forskolin is added to give final concentrations of 1 mM and 50 μM, respectively. Images are captured at regular intervals to form a time lapse sequence of the response, also as described in Example 2.
The plate is then run in the FLIPR system at 37° C., with addition of IBMX and forskolin to all wells at final concentrations of 500 μM and 50 μM respectively after the first minute. The experiment is continued for a further 45 minutes, readings being taken at intervals of 1 minute.
Non-clonal CHO cells stably transfected with the HSPDE4A4-EGFP probe are allowed to adhere to chambered coverglasses in HAM's F12 medium containing 10% FBS and to grow for 24 hours.
Clonal CHO cells stably transfected with the HSPDE4A4-EGFP probe are allowed to adhere to chambered coverglasses in HAM's F12 medium containing 10% FBS and to grow for 5 days without change of medium, which by this time is serum-depleted.
Individual wells are then treated with either 50 μM forskolin plus 500 μM IBMX or 200 nM PMA plus 2 μM ionomycin.

HSPDE4A4-ΔLR2-EGFP = target: T3, HSPDE4A4-ΔLR2-EGFP (Homo sapiens, UniProt P27815, DEL313-320); assay: Spot formation in CHO cells transfected with HSPDE4A4-ΔLR2-EGFP; type: cell-based; conditions: 30 to 0.01 μM
T3 construct: expressed in transfected cells
Method: Stably transfected (non-clonal) cells are allowed to adhere to chambered coverglasses in HAM's F12 medium containing 10% FBS.
(§1) The cells are then fixed with 4% formaldehyde buffer (pH7) for 1 hour, washed with PBS and stained with 1 μM Hoechst 33258 in PBS for 10 minutes at 25° C., then washed twice in PBS. Automated images are collected and analysed for the number of spots per cell as described in Example 2.

HSPDE4A4-H506N-EGFP = target: T4, HSPDE4A4-H506N-EGFP (Homo sapiens, UniProt P27815, H506N); assay: Spot formation in CHO cells transfected with HSPDE4A4-H506N-EGFP; type: cell-based; conditions: clonal cells, over the concentrations tested
T4 construct: expressed in transfected cells
Method: as §1
as §1, with “Cells are grown in HAM's F12 medium plus 10% FBS plus various concentrations of inhibitors for 23.5 hours. The” for “The”

[3] = human, in vivo; cited from earlier work
PDE4 = conditions: yes/no; cited from earlier work

T2 sequence (P27815 whole entry): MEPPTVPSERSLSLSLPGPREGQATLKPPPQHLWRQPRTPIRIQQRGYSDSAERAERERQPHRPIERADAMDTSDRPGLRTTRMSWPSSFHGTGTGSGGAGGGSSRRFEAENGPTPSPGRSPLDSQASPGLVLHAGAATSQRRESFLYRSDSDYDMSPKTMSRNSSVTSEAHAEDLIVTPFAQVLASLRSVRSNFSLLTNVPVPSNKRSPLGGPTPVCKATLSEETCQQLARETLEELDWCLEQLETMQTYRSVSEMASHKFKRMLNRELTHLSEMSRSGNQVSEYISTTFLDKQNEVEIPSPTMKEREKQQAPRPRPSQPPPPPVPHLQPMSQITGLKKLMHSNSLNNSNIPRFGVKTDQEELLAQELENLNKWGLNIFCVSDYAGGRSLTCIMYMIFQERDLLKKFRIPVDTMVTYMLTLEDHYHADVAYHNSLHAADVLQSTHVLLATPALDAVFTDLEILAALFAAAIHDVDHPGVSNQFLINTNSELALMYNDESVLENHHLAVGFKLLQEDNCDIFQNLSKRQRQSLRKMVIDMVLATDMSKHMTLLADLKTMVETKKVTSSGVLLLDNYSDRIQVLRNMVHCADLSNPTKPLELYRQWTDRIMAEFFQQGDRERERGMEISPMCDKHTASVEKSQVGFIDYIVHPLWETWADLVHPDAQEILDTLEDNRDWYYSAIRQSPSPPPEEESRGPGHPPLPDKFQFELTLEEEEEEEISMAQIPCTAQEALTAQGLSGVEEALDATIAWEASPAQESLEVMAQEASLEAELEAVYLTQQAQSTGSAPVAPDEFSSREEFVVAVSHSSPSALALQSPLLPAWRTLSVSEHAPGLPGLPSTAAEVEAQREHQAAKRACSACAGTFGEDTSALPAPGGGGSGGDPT
T4 sequence (P27815 whole entry H506N): as the sequence (P27815 whole entry) above, with H506N counted along it
T3 sequence (P27815 with tags, fused parts or gaps DEL313-320): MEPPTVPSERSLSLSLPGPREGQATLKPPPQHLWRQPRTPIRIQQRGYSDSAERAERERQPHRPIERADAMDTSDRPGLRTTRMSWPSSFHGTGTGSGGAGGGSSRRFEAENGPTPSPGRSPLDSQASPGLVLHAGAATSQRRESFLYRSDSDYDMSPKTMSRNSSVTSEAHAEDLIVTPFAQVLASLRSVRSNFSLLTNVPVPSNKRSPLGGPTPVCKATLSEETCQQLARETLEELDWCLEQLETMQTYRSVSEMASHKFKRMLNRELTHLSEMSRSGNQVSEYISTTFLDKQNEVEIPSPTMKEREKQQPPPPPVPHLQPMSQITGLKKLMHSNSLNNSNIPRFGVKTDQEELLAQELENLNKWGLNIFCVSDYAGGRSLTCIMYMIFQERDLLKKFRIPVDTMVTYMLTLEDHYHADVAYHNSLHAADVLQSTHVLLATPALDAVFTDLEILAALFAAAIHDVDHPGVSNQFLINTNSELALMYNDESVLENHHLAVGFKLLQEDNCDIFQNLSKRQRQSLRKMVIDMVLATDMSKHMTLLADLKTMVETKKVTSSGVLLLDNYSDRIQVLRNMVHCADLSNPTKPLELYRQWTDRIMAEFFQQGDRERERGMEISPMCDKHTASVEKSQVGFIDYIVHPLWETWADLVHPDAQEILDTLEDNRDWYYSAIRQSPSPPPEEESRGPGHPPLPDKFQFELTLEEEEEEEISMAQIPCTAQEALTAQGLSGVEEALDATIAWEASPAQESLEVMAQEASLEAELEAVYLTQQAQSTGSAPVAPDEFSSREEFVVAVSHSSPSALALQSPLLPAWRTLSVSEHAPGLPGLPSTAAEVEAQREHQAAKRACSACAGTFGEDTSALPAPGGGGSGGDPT
T1 sequence (P27815 1-647 isoform P27815-4): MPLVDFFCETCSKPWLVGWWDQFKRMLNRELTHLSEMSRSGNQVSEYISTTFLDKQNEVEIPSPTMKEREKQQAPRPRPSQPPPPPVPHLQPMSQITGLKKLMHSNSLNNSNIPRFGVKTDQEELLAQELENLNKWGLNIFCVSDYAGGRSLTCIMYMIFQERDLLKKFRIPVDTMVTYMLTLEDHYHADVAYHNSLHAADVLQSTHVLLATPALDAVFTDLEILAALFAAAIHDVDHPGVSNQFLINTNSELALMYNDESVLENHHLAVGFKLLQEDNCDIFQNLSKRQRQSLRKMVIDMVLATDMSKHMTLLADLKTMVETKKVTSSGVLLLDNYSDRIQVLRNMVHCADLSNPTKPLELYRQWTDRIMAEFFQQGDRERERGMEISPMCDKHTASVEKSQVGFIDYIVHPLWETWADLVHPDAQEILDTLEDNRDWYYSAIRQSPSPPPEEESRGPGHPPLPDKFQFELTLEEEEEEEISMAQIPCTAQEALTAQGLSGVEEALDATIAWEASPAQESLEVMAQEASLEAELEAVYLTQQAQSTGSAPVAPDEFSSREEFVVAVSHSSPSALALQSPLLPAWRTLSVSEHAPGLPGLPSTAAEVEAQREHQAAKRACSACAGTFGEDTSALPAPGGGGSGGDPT

COc1ccc([C@]2(C#N)CC[C@@H](C(=O)O)CC2)cc1OC1CCCC1 [Ariflo®]
Reversal of Rolipram-induced removal of PDE4A1 spots (predicted, not tested) (HSPDE4A1-EGFP): yes | formation of spots, compound alone (in words) (HSPDE4A4-EGFP [1]; observed up to 24 hours): does not by itself produce spots | Formation of PDE4A4 spots (HSPDE4A4-EGFP [1]; yes/no): no | Removal of Rolipram-induced PDE4A4-spots (HSPDE4A4-EGFP [2]): yes | formation of spots, compound alone (in words) (HSPDE4A4-ΔLR2-EGFP): does not by itself produce spots | spot formation response (in words) (HSPDE4A4-H506N-EGFP): does not by itself produce spots | Clinical effect [3]: anti- | Emesis [3]: no | Inhibition of PDE4 catalytic activity (PDE4): yes
